From PubChem BioAssay AID330 (DTP/NCI, 2004)
Where “and” joins values, the source holds several entries; their conditions need not be identical. Equal entries are not always repeated. Inconclusive results and toxic doses are left out. The calls were made as follows: active = survival T/C of 150% or more; inactive = T/C below 125% in these data.

System: P388 leukemia ip, CD2F1 mice, survival T/C
Assay: NCI In Vivo Anticancer Drug Screen. Data for tumor model P388 Leukemia (intraperitoneal) in CD2F1 (CDF1) mice
Conditions: endpoint: median survival time, higher = longer survival
Procedure, shortened: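 Mice carrying the transplanted tumor received test compound or vehicle. Survival was recorded in each group, and the value is the treated-group measurement divided by that of the vehicle-treated control group.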

[1] = dose: 60.0 mg/kg/injection, schedule: Q01DX005 (ip), vehicle: saline
[2] = dose: 120.0 mg/kg/injection, schedule: Q01DX005 (ip), vehicle: saline
[3] = dose: 50.0 mg/kg/injection, schedule: Q01DX009 (ip), vehicle: saline
[4] = dose: 100.0 mg/kg/injection, schedule: Q01DX009 (ip), vehicle: saline
[5] = dose: 50.0 mg/kg/injection, schedule: Q01DX009 (ip), vehicle: Klucel (hydroxypropylcellulose) (HPC)
[6] = dose: 100.0 mg/kg/injection, schedule: Q01DX009 (ip), vehicle: Klucel (hydroxypropylcellulose) (HPC)
[7] = dose: 200.0 mg/kg/injection, schedule: Q01DX009 (ip), vehicle: Klucel (hydroxypropylcellulose) (HPC)
[8] = dose: 50.0 mg/kg/injection, schedule: Q01DX005 (ip), vehicle: saline with Tween-80
[9] = dose: 100.0 mg/kg/injection, schedule: Q01DX005 (ip), vehicle: saline with Tween-80
[10] = dose: 200.0 mg/kg/injection, schedule: Q01DX005 (ip), vehicle: saline with Tween-80
[11] = dose: 50.0 mg/kg/injection, schedule: Q01DX005 (ip), vehicle: Klucel (hydroxypropylcellulose) (HPC)
[12] = dose: 100.0 mg/kg/injection, schedule: Q01DX005 (ip), vehicle: Klucel (hydroxypropylcellulose) (HPC)
[13] = dose: 200.0 mg/kg/injection, schedule: Q01DX005 (ip), vehicle: Klucel (hydroxypropylcellulose) (HPC)
[14] = dose: 60.0 mg/kg/injection, schedule: Q01DX005 (ip), vehicle: saline with Tween-80
[15] = dose: 120.0 mg/kg/injection, schedule: Q01DX005 (ip), vehicle: saline with Tween-80
[16] = dose: 240.0 mg/kg/injection, schedule: Q01DX005 (ip), vehicle: saline with Tween-80
[17] = dose: 60.0 mg/kg/injection, schedule: Q01DX005 (ip), vehicle: Klucel (hydroxypropylcellulose) (HPC)
[18] = dose: 120.0 mg/kg/injection, schedule: Q01DX005 (ip), vehicle: Klucel (hydroxypropylcellulose) (HPC)
[19] = dose: 240.0 mg/kg/injection, schedule: Q01DX005 (ip), vehicle: Klucel (hydroxypropylcellulose) (HPC)
[20] = dose: 50.0 mg/kg/injection, schedule: Q01DX009 (ip), vehicle: saline with Tween-80
[21] = dose: 100.0 mg/kg/injection, schedule: Q01DX009 (ip), vehicle: saline with Tween-80

Measured: T/C

O=C(/C=C\c1ccc([N+](=O)[O-])cc1)c1ccccc(=O)c1O
inactive: dose: 12.5 mg/kg/injection, schedule: Q01DX001 (ip), vehicle: Klucel (hydroxypropylcellulose) (HPC) 95 % of control | dose: 25.0 mg/kg/injection, schedule: Q01DX001 (ip), vehicle: Klucel (hydroxypropylcellulose) (HPC) 100 % of control | dose: 50.0 mg/kg/injection, schedule: Q01DX001 (ip), vehicle: Klucel (hydroxypropylcellulose) (HPC) 99 % of control | dose: 100.0 mg/kg/injection, schedule: Q01DX001 (ip), vehicle: Klucel (hydroxypropylcellulose) (HPC) 98 % of control

[N-]=[N+]=NCC1OC(n2cnc3c(N)ncnc32)CC1O (stereo unspecified)
inactive: [1] 104 % of control | [2] 100 % of control | dose: 240.0 mg/kg/injection, schedule: Q01DX005 (ip), vehicle: saline 104 % of control

O=C(C=C(C(F)(F)F)C(F)(F)F)c1ccc([N+](=O)[O-])cc1
inactive: dose: 3.13 mg/kg/injection, schedule: Q04DX003 (ip), vehicle: other 100 % of control | dose: 6.25 mg/kg/injection, schedule: Q04DX003 (ip), vehicle: other 109 % of control | dose: 12.5 mg/kg/injection, schedule: Q04DX003 (ip), vehicle: other 118 % of control

NC(=O)CCCCCOc1ccc(OC2OC(CO)C(O)C(O)C2O)cc1 (stereo unspecified)
inactive: dose: 100.0 mg/kg/injection, schedule: Q04DX002 (ip), vehicle: saline with Tween-80 100 % of control | dose: 200.0 mg/kg/injection, schedule: Q04DX002 (ip), vehicle: saline with Tween-80 102 % of control | dose: 400.0 mg/kg/injection, schedule: Q04DX002 (ip), vehicle: saline with Tween-80 104 % of control

CC(C)c1ccc(C2NC(=S)NC(=O)C2C#N)cc1 (stereo unspecified)
inactive: [3] 101 % of control | [4] 100 % of control | dose: 200.0 mg/kg/injection, schedule: Q01DX009 (ip), vehicle: saline 98 % of control

CCN(CC)CCNCc1cc(Cl)c2cccnc2c1O
inactive: [3] 93 % of control | [4] 106 % of control

S=c1[nH]ccn1-c1ccccc1
inactive: dose: 25.0 mg/kg/injection, schedule: Q01DX009 (ip), vehicle: Klucel (hydroxypropylcellulose) (HPC) 99 % of control | [5] 104 % of control | [6] 109 % of control | [7] 95 % of control

COc1cc2c(cc1OC)C1=[N+](CCC1)CC2
inactive: dose: 15.0 mg/kg/injection, schedule: Q01DX005 (ip), vehicle: saline 101 % of control | dose: 30.0 mg/kg/injection, schedule: Q01DX005 (ip), vehicle: saline 99 % of control | [1] 99 % of control

CC(/C=N/NC(=O)C[n+]1ccccc1)=N/NC(=O)C[n+]1ccccc1
inactive: dose: 3.12 mg/kg/injection, schedule: Q01DX005 (ip), vehicle: saline 96 % of control and 98 % of control | dose: 6.25 mg/kg/injection, schedule: Q01DX005 (ip), vehicle: saline 97 % of control and 98 % of control | dose: 12.5 mg/kg/injection, schedule: Q01DX005 (ip), vehicle: saline 99 % of control and 97 % of control | dose: 25.0 mg/kg/injection, schedule: Q01DX005 (ip), vehicle: saline 99 % of control and 101 % of control | [8] 95 % of control

CCC(=O)Nc1cc(C(F)(F)F)cc2[nH]c(C)nc12
inactive: [8] 97 % of control | [9] 99 % of control | [10] 100 % of control

CC1OC(OC2C(Oc3cc(O)c4c(c3)OC(c3ccc(O)cc3)CC4=O)OC(CO)C(O)C2O)C(O)C(O)C1O (stereo unspecified)
inactive: dose: 50.0 mg/kg/injection, schedule: Q01DX005 (ip), vehicle: saline 98 % of control | dose: 100.0 mg/kg/injection, schedule: Q01DX005 (ip), vehicle: saline 97 % of control | dose: 200.0 mg/kg/injection, schedule: Q01DX005 (ip), vehicle: saline 98 % of control

Cn1c(C(C)(O)c2cc3c(Cl)nccc3n2C)cc2c(Cl)nccc21
inactive: [11] 103 % of control | [12] 105 % of control | [13] 106 % of control

Cc1nnc2cc1CCCCCCCCC2
inactive: [11] 108 % of control | [12] 107 % of control | [13] 103 % of control

Cc1ccc2c(c1)CN(C)c1ccc(C)cc1CN2C
inactive: [14] 98 % of control | [15] 100 % of control | [16] 98 % of control

Brc1cc(-c2ccccc2)no1
inactive: [5] 104 % of control | [6] 111 % of control | [7] 109 % of control

N#CC1=C(O)NC(O)=C(C#N)C12C(=O)Nc1ccccc12
inactive: [11] 98 % of control | [8] 104 % of control | [12] 101 % of control | [9] 104 % of control | [13] 99 % of control | [10] 104 % of control

C#CCCCOCOCCOC
inactive: [1] 101 % of control | [2] 101 % of control

N#CCCCN1C(=O)c2ccccc2C1=O
inactive: [5] 102 % of control | [6] 104 % of control

COc1ccc(C2OC(=O)C=C(C)O2)cc1 (stereo unspecified)
inactive: [17] 104 % of control | [18] 98 % of control | [19] 117 % of control

CC(C)CC1C(=O)OC(C(C)C)C(=O)N(C)C(CC(C)C)C(=O)OC(C(C)C)C(=O)N(C)C(CC(C)C)C(=O)OC(C(C)C)C(=O)N(C)C(CC(C)C)C(=O)OC(C(C)C)C(=O)N1C (stereo unspecified)
inactive: dose: 1.0 mg/kg/injection, schedule: Q01DX009 (ip), vehicle: saline with Tween-80 99 % of control | dose: 2.0 mg/kg/injection, schedule: Q01DX009 (ip), vehicle: saline with Tween-80 90 % of control | dose: 4.0 mg/kg/injection, schedule: Q01DX009 (ip), vehicle: saline with Tween-80 101 % of control | dose: 8.0 mg/kg/injection, schedule: Q01DX009 (ip), vehicle: saline with Tween-80 101 % of control | dose: 16.0 mg/kg/injection, schedule: Q01DX009 (ip), vehicle: saline with Tween-80 96 % of control

Nc1nc2c(=O)[nH]c(=O)[nH]c2n1C1OC(CO)C(O)C1O (stereo unspecified)
inactive: [14] 117 % of control

COc1c(-c2ccccc2)c(=O)n2c3cc(C)c(C)cc3n(C)c2c1C#N
inactive: [14] 100 % of control | [15] 86 % of control | [16] 89 % of control

Nc1nc(-c2ccc([N+](=O)[O-])cc2)c([N+](=O)[O-])c(=O)[nH]1
inactive: dose: 3.0 mg/kg/injection, schedule: Q01DX009 (ip), vehicle: saline with Tween-80 105 % of control | dose: 6.0 mg/kg/injection, schedule: Q01DX009 (ip), vehicle: saline with Tween-80 110 % of control | dose: 12.0 mg/kg/injection, schedule: Q01DX009 (ip), vehicle: saline with Tween-80 110 % of control

CCN(CC)C(Cc1ccccc1)=NC(C)(C)C
inactive: [20] 94 % of control | [21] 88 % of control

O=c1oc2ccccc2c2c1cnn2-c1ccccc1
inactive: [17] 103 % of control | [18] 105 % of control | [19] 104 % of control

CCc1ccc(S(=O)(=O)O)cc1
inactive: [20] 100 % of control | [21] 94 % of control | dose: 200.0 mg/kg/injection, schedule: Q01DX009 (ip), vehicle: saline with Tween-80 98 % of control
